Measured values published in US7932261B2, “Macrocycle derivatives useful as inhibitors of β-secretase (BACE)” (Janssen Pharmaceutica NV, priority 2006, dated 2011).

Tests used:
β-secretase (BACE) [1] = target: T1, β-secretase (BACE) (Homo sapiens, UniProt P56817); test: in vitro BACE FS1 % Inhibition Assay (Example 13); type: biochemical; conditions: FS1 substrate, pH 5; for inhibition at 0.3 µM: read-out: % Inhibition (Example 13) @ 0.3 μM, 0.3 μM compound; for inhibition at 1 µM: read-out: % Inhibition (Example 13) @ 1 μM, 1 μM compound; for inhibition at 3 µM: read-out: % Inhibition (Example 13) @ 3 μM, 3 μM compound
T1 construct: purchased Panvera
Procedure: (§1) The following assay buffers were prepared and used in this assay: (1) enzyme assay buffer (0.05 M sodium acetate, pH5, 0.1% PEG8000 (w/v)), (2) substrate assay buffer (0.05 M sodium acetate, pH5), and (3) compound vehicle (30% DMSO in 50 mM HEPES, pH 7.4).
(§2) The FS1-substrate stock solution was prepared in DMSO as a 10 mg/mL solution. The FS1-substrate working solution was prepared by diluting the 10 mg/mL stock solution with substrate assay buffer to a final concentration of 300 μg/mL. The α-secretase (BACE) working solution was prepared by diluting a 0.83 mg/mL BACE stock solution with enzyme assay buffer to a final concentration of 4 μg/mL.
Test compounds were dissolved in DMSO to 10 mM.
(§3) The screening procedure for this assay was as follows: 15 μL of BACE working solution was pipetted into each well of a 96-well plate. To each well was then pipetted 2 μL of test compound at the selected concentration. Test compound and BACE were then mixed with a pipettor and incubated for 20 min at room temperature. To each well was then added 10 µL of the FS1 substrate working solution. The plates were then incubated for 1 hour at room temperature.
The procedure for the blank (negative control) was as follows. 15 μL of assay buffer was pipetted into each well to be used as a blank control. To each well was then added 2 μL of vehicle and 10 μL of FS1-substrate working solution. The plates were then incubated for 1 hour at room temperature.
(§4) The procedure for the positive control was as follows: 15 μL of BACE working solution was pipetted into each well to be used as a positive control. To each well was then pipetted 2 μL of vehicle. Vehicle and BACE were then mixed with a pipettor and incubated for 20 min at room temperature. To each well was then added 10 μL of the FS1 substrate working solution. The plates were then incubated for 1 hour at room temperature.
For test compounds, % inhibition was determined at each concentration as follows: […]

β-secretase (BACE) [2] = target: T1, β-secretase (BACE); test: in vitro BACE Assay, Ki (Example 14); type: biochemical
Procedure: as §1
as §2, with “β-secretase” for “α-secretase”
Test compounds were dissolved in DMSO at 10 mM.
as §3, with “The” for “The screening”, “μL” for “µL”, “solution.” for “solution. The plates were then incubated for 1 hour at room temperature.”
as §4, with “solution.” for “solution. The plates were then incubated for 1 hour at room temperature.”
For test compounds, Ki inhibition was determined as follows: For each compound concentration and positive control, rate of cleavage of substrate (Vi, where i=compound concentration in μM) was determined as Δ Fluorescence/Δ time (min). Cleavage rates (Vi) were plotted as a function of inhibitor concentration in μM [I]. The Ki was then determined by fitting the following equation to the graph of [I] vs. Vi Y=aVmax/(50+24*(1+X/Ki)),

T1 sequence (P56817 46-501): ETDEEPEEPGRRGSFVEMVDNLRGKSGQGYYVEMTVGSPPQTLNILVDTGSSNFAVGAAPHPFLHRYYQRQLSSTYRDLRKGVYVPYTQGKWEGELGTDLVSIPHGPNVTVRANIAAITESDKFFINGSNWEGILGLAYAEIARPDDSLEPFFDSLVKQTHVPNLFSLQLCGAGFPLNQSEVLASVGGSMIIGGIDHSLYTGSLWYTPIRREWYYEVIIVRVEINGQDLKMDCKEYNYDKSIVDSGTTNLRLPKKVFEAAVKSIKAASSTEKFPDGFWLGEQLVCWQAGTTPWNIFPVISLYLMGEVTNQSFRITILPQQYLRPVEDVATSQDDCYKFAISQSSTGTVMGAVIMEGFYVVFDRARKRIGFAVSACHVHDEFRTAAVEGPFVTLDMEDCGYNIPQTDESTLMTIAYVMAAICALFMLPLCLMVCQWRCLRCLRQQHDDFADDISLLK

| SMILES | inhibition at 0.3 µM (β-secretase (BACE) [1]) | inhibition at 1 µM (β-secretase (BACE) [1]) | inhibition at 3 µM (β-secretase (BACE) [1]) | Ki (β-secretase (BACE) [2]) |
| --- | --- | --- | --- | --- |
| CC(C)[C@@H]1CCC(=O)N(CCCO)CCc2cccc(c2)Oc2ccc3c(c2)CN1C(N)=N3 [Compound 25] | 65% | 99% | 111% | 44 nM |
| CC(C)[C@@H]1CCC(=O)N(C2CCCCC2)CCOc2cccc(c2)Oc2ccc3c(c2)CN1C(N)=N3 [Compound 27] | 106% | 117% | 117% | 11 nM |
